Test results taken from publication PMC9329436, “Optimization of the 4-anilinoquin(az)oline scaffold as epidermal growth factor receptor (EGFR) inhibitors for chordoma utilizing a toxicology profiling assay platform” (Scientific Reports, 2022).

system: U-CH2 chordoma cell line; test: Cell viability assay (alamarBlue, 72 h), U-CH2; type: cell-based, human; conditions: n = 4, 72 h
Experimental: (§1) Chordoma cell lines were cultured as described previously[10],[12],[33],[34]. Briefly, U-CH1 and U-CH2 cell lines were cultured in 4:1 IMDM:RPMI medium supplemented with 10% fetal bovine serum (FBS) and 1% penicillin/streptomycin in gel-coated flasks. […] CH22, UM-Chor1, U-CH12, and U-CH7 cell lines were cultured in RPMI medium supplemented with 10% FBS and 1% penicillin/streptomycin. The cell lines all undergo regular mycoplasma screening.
(§2) Cells were seeded in 384 well plates and were treated with test compound in quadruplicate 24 h after plating. Cell viability was assessed at 72 h using alamarBlue (ThermoFisher, USA). […] IC50 values were determined by four-parameter nonlinear regression analyses using GraphPad Prism™ version 8 software (San Diego, CA).

| Structure (SMILES) | IC50 |
| --- | --- |
| C#Cc1cccc(Nc2ncnc3cc(C(F)(F)F)ccc23)c1 [Compound 16] | 15 µM |
| C#Cc1cccc(Nc2ncnc3cc(C#N)ccc23)c1 [Compound 17] | > 100 µM |
| C#Cc1cccc(Nc2ncnc3cc4c(cc23)OCCO4)c1 [Compound 21] | > 100 µM |
| C#Cc1cccc(Nc2c(C#N)cnc3cc(I)ccc23)c1 [Compound 32] | > 100 µM |
| C#Cc1ccc(F)c(Nc2ncnc3ccc(I)cc23)c1 [Compound 34] | > 100 µM |
| C#Cc1cccc(Nc2ccnc3ccc(I)cc23)c1F [Compound 35] | > 100 µM |

system: U-CH1 chordoma cell line; test: Cell viability assay (alamarBlue, 72 h), U-CH1; type: cell-based, human; conditions: n = 4, 72 h
Experimental: as §1, §2

| Structure (SMILES) | IC50 |
| --- | --- |
| C#Cc1cccc(Nc2ncnc3cc(C(F)(F)F)ccc23)c1 [Compound 16] | 12 µM |
| C#Cc1cccc(Nc2ncnc3cc(C#N)ccc23)c1 [Compound 17] | 65 µM |
| C#Cc1cccc(Nc2ncnc3cc4c(cc23)OCCO4)c1 [Compound 21] | 8.8 µM |
| C#Cc1cccc(Nc2c(C#N)cnc3cc(I)ccc23)c1 [Compound 32] | > 100 µM |
| C#Cc1ccc(F)c(Nc2ncnc3ccc(I)cc23)c1 [Compound 34] | 27 µM |
| C#Cc1cccc(Nc2ccnc3ccc(I)cc23)c1F [Compound 35] | 8.9 µM |

system: HL60 cells; test: AsedaSciences SYSTEMETRIC Cell Health Screen (flow cytometry toxicity profiling); conditions: HL60, 4 h, 5 nM–100 µM, probability 0–1, n = 2
In short: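 Risk scores derive from a logistic-regression ML classifier comparing flow-cytometric stress phenotypes with those of 300 reference compounds of known high or low human risk. Phenotypes: light scatter plus fluorescent physiological dyes, twelve parameters, no gating. Compounds tested 5 nM–100 µM (3× steps, duplicate) on HL60 cells, 4 h, 37 °C.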

| Structure (SMILES) | CC: Cell Cycle score | CM: Cell morphology score | CMI: Cell membrane integrity score | GSH: Glutathione score | MMP: Mitochondrial membrane depolarization score | NMI1: Nuclear membrane integrity 1 score | NMI2: Nuclear membrane integrity 2 score | ROS: Reactive superoxide species score |
| --- | --- | --- | --- | --- | --- | --- | --- | --- |
| C#Cc1cccc(Nc2ncnc3cc(C(F)(F)F)ccc23)c1 [Compound 16] | 0.92 | 1.00 | 0.87 | 0.79 | 1.00 | 0.6 | 0.93 | 1.00 |
| C#Cc1cccc(Nc2ncnc3cc(C#N)ccc23)c1 [Compound 17] | 0.25 | 0.43 | 0.052 | 0.04 | 0.10 | 0.37 | 0.10 | 0.41 |
| C#Cc1cccc(Nc2ncnc3cc4c(cc23)OCCO4)c1 [Compound 21] | 0.77 | 0.053 | 0.91 | 0.39 | 0.91 | 0.73 | 0.83 | 0.85 |
| C#Cc1cccc(Nc2c(C#N)cnc3cc(I)ccc23)c1 [Compound 32] | 0.95 | 1.00 | 1.00 | 0.98 | 0.99 | 0.95 | 0.94 | 0.99 |
| C#Cc1ccc(F)c(Nc2ncnc3ccc(I)cc23)c1 [Compound 34] | 0.25 | 0.025 | 0.014 | 0.044 | 0.030 | 0.17 | 0.078 | 0.074 |
| C#Cc1cccc(Nc2ccnc3ccc(I)cc23)c1F [Compound 35] | 0.12 | 0.0052 | 0.78 | 0.16 | 0.47 | 0.62 | 0.62 | 0.46 |

same assay, conditions: HL60, 4 h, 5 nM–100 µM, probability (0–1) of high-risk class, n = 2

| Structure (SMILES) | CHI: Cell Health Index |
| --- | --- |
| C#Cc1cccc(Nc2ncnc3cc(C(F)(F)F)ccc23)c1 [Compound 16] | 0.78 |
| C#Cc1cccc(Nc2ncnc3cc(C#N)ccc23)c1 [Compound 17] | 0.45 |
| C#Cc1cccc(Nc2ncnc3cc4c(cc23)OCCO4)c1 [Compound 21] | 0.56 |
| C#Cc1cccc(Nc2c(C#N)cnc3cc(I)ccc23)c1 [Compound 32] | 0.81 |
| C#Cc1ccc(F)c(Nc2ncnc3ccc(I)cc23)c1 [Compound 34] | 0.18 |
| C#Cc1cccc(Nc2ccnc3ccc(I)cc23)c1F [Compound 35] | 0.37 |

same assay, conditions: SYSTEMETRIC Cell Health Screen; assay n=2

| Structure (SMILES) | Cell Health Toxcity Profile CC (DyeCycle Violet) | Cell Health Toxcity Profile CM (Cell morphology) | Cell Health Toxcity Profile CMI (Cell membrane integrity) | Cell Health Toxcity Profile GSH (Glutathione) | Cell Health Toxcity Profile MMP (Mitochondrial membrane depolarization) | Cell Health Toxcity Profile NMI1 (Nuclear membrane integrity 1) | Cell Health Toxcity Profile NMI2 (Nuclear membrane integrity 2) | Cell Health Toxcity Profile ROS (Reactive superoxide species) |
| --- | --- | --- | --- | --- | --- | --- | --- | --- |
| C#Cc1cccc(Nc2c(C#N)cnc3cc(I)ccc23)c1 [Compound 32] | 0.95 | 1.00 | 1.00 | 0.98 | 0.99 | 0.95 | 0.94 | 0.99 |

same assay, conditions: SYSTEMETRIC Cell Health Screen; classifier output; assay n=2

| Structure (SMILES) | Cell Health Toxcity Profile CHI |
| --- | --- |
| C#Cc1cccc(Nc2c(C#N)cnc3cc(I)ccc23)c1 [Compound 32] | 0.81 |

system: CH22 patient-derived chordoma cell line; test: Cell viability assay (alamarBlue, 72 h), CH22; type: cell-based, human; conditions: n = 4, 72 h
Experimental: as §1, §2

| Structure (SMILES) | IC50 |
| --- | --- |
| C#Cc1cccc(Nc2ncnc3cc(C(F)(F)F)ccc23)c1 [Compound 16] | 8 µM |
| C#Cc1cccc(Nc2ncnc3cc(C#N)ccc23)c1 [Compound 17] | > 100 µM |
| C#Cc1cccc(Nc2ncnc3cc4c(cc23)OCCO4)c1 [Compound 21] | > 100 µM |
| C#Cc1cccc(Nc2c(C#N)cnc3cc(I)ccc23)c1 [Compound 32] | > 100 µM |
| C#Cc1ccc(F)c(Nc2ncnc3ccc(I)cc23)c1 [Compound 34] | > 100 µM |
| C#Cc1cccc(Nc2ccnc3ccc(I)cc23)c1F [Compound 35] | > 100 µM |

system: WS1 human fibroblast cell line; test: Cell viability assay, WS1 toxicity control; type: cell-based; conditions: n = 4, nonspecific toxicity control
Experimental: as §2

| Structure (SMILES) | IC50 |
| --- | --- |
| C#Cc1cccc(Nc2ncnc3cc(C(F)(F)F)ccc23)c1 [Compound 16] | 18 µM |
| C#Cc1cccc(Nc2ncnc3cc(C#N)ccc23)c1 [Compound 17] | > 100 µM |
| C#Cc1cccc(Nc2ncnc3cc4c(cc23)OCCO4)c1 [Compound 21] | > 100 µM |
| C#Cc1cccc(Nc2c(C#N)cnc3cc(I)ccc23)c1 [Compound 32] | > 100 µM |
| C#Cc1ccc(F)c(Nc2ncnc3ccc(I)cc23)c1 [Compound 34] | > 100 µM |
| C#Cc1cccc(Nc2ccnc3ccc(I)cc23)c1F [Compound 35] | 85 µM |

target: EGFR (Homo sapiens, UniProt P00533); test: ProQinase in-cell EGFR assay (EGFR phosphorylation in A431 cells); type: cell-based; set-up: This cell line endogenously expresses a high level of EGFR; endogenous in cells; host or cells: A431; conditions: ProQinase in-cell EGFR assay, A431 cells, n = 1
Text: In addition, we ran an EGFR in-cell target engagement assay, measuring in-cell EGFR phosphorylation, using the human epidermoid carcinoma cell line A431. This cell line endogenously expresses a high level of EGFR, and stimulation of these cells with human epidermal growth factor (EGF) results in receptor tyrosine autophosphorylation.

EGFR, sequence (P00533 25-1210): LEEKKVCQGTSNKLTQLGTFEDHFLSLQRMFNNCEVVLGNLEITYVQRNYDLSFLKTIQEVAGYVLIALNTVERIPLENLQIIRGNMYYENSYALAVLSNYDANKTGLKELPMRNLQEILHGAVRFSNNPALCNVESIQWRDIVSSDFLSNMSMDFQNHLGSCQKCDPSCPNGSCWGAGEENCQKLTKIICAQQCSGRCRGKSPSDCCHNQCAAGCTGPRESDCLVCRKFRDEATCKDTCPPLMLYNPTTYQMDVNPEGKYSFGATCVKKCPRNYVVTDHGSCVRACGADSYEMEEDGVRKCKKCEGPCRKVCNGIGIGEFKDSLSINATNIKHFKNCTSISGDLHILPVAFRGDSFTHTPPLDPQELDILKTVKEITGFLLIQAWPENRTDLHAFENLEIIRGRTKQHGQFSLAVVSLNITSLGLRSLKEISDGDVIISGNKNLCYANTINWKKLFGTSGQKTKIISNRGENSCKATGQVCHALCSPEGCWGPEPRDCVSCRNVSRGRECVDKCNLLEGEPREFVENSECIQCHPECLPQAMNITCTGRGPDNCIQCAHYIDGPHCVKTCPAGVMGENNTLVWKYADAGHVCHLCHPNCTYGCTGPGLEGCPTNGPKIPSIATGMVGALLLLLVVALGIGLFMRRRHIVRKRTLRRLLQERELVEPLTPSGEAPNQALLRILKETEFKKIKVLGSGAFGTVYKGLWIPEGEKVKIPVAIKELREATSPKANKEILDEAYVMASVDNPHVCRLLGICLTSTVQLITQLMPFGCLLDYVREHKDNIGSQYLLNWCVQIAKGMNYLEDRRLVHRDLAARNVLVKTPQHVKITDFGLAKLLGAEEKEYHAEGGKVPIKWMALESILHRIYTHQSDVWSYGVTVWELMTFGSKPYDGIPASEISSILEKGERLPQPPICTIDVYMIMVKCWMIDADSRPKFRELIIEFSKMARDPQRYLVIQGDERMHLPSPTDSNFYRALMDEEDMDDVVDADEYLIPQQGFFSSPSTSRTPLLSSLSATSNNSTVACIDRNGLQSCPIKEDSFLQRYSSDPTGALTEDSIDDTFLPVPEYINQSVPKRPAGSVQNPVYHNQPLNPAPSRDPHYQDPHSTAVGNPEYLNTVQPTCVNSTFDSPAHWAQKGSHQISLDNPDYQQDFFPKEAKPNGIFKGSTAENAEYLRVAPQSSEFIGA

| IC50 | Structure (SMILES) |
| --- | --- |
| > 20000 nM | C#Cc1cccc(Nc2ncnc3cc(C(F)(F)F)ccc23)c1 [Compound 16] |
| > 20000 nM | C#Cc1cccc(Nc2ncnc3cc(C#N)ccc23)c1 [Compound 17] |
| 1900 nM | C#Cc1cccc(Nc2ncnc3cc4c(cc23)OCCO4)c1 [Compound 21] |
| 760 nM | C#Cc1ccc(F)c(Nc2ncnc3ccc(I)cc23)c1 [Compound 34] |
| 1900 nM | C#Cc1cccc(Nc2ccnc3ccc(I)cc23)c1F [Compound 35] |

| Structure (SMILES) | IC50 |
| --- | --- |
| C#Cc1cccc(Nc2c(C#N)cnc3cc(I)ccc23)c1 [Compound 32] | 2700 nM |

system: UM-Chor1 patient-derived chordoma cell line; test: Cell viability assay (alamarBlue, 72 h), UM-Chor1; type: cell-based, human; conditions: n = 4, 72 h
Experimental: as §1, §2

| Structure (SMILES) | IC50 |
| --- | --- |
| C#Cc1cccc(Nc2ncnc3cc(C(F)(F)F)ccc23)c1 [Compound 16] | 31 µM |
| C#Cc1cccc(Nc2ncnc3cc(C#N)ccc23)c1 [Compound 17] | > 100 µM |
| C#Cc1cccc(Nc2ncnc3cc4c(cc23)OCCO4)c1 [Compound 21] | 64 µM |
| C#Cc1cccc(Nc2c(C#N)cnc3cc(I)ccc23)c1 [Compound 32] | > 100 µM |
| C#Cc1ccc(F)c(Nc2ncnc3ccc(I)cc23)c1 [Compound 34] | > 100 µM |
| C#Cc1cccc(Nc2ccnc3ccc(I)cc23)c1F [Compound 35] | > 100 µM |

system: U-CH7 patient-derived chordoma cell line; test: Cell viability assay (alamarBlue, 72 h), U-CH7; type: cell-based, human; conditions: n = 4, 72 h
Experimental: as §1, §2

| Structure (SMILES) | IC50 |
| --- | --- |
| C#Cc1cccc(Nc2ncnc3cc(C(F)(F)F)ccc23)c1 [Compound 16] | 63 µM |
| C#Cc1cccc(Nc2ncnc3cc(C#N)ccc23)c1 [Compound 17] | > 100 µM |
| C#Cc1cccc(Nc2ncnc3cc4c(cc23)OCCO4)c1 [Compound 21] | > 100 µM |
| C#Cc1cccc(Nc2c(C#N)cnc3cc(I)ccc23)c1 [Compound 32] | > 100 µM |
| C#Cc1ccc(F)c(Nc2ncnc3ccc(I)cc23)c1 [Compound 34] | > 100 µM |
| C#Cc1cccc(Nc2ccnc3ccc(I)cc23)c1F [Compound 35] | > 100 µM |

system: U-CH12 patient-derived chordoma cell line; test: Cell viability assay (alamarBlue, 72 h), U-CH12; type: cell-based, human; conditions: n = 4, 72 h
Experimental: as §1, §2

| Structure (SMILES) | IC50 |
| --- | --- |
| C#Cc1cccc(Nc2ncnc3cc(C(F)(F)F)ccc23)c1 [Compound 16] | 7.5 µM |
| C#Cc1cccc(Nc2ncnc3cc(C#N)ccc23)c1 [Compound 17] | > 100 µM |
| C#Cc1cccc(Nc2ncnc3cc4c(cc23)OCCO4)c1 [Compound 21] | > 100 µM |
| C#Cc1cccc(Nc2c(C#N)cnc3cc(I)ccc23)c1 [Compound 32] | > 100 µM |
| C#Cc1ccc(F)c(Nc2ncnc3ccc(I)cc23)c1 [Compound 34] | > 100 µM |
| C#Cc1cccc(Nc2ccnc3ccc(I)cc23)c1F [Compound 35] | > 100 µM |
